Measurements from US9901591B2, “Paeoniflorin preparations and uses thereof for fat reduction” (priority 2008, dated 2018).
Values joined by “and” are separate entries in the source; they are usually repeats but may differ in a detail not shown here. Identical values can stand only once.

Key:
[1] = system: 3T3-L1 adipocytes; test: Glycerol release from differentiated 3T3-L1 adipocytes (adipolysis); format: cell-based, mouse; details: 1 umol/L PF vs media without PF, 7th day
Text: The 3T3-L1 cell line is an accepted model by those of skill in the art for natural fat loss. This cell line is a substrain of Swiss 3T3 mouse cell line 3T3-L1. This cell line propagated under normal conditions has a fibroblastic phenotype. However, when treated with a combination of dexamethasone, isobutylmethylxanthine (a non-specific inhibitor of phosphodiesterases) (IBMX) and insulin, 3T3 cells adopt a rounded phenotype and accumulate lipids intracellularly in the form of fat droplets. Differentiated 3T3-L1 adipocytes were cultured in media containing 1 umol/L PF as test group, and media without PF as control. As a result of lipolysis activity, glycerol will be generated as a result of triglyceride breakdown and released into the extracellular space. Glycerol content from 3T3-L1 adipocyte cell culture media may therefore provide an indicator of adipolysis.

[2] = system: intracellular cyclic AMP; test: Intracellular cyclic AMP by ELISA in 3T3-L1 adipocytes; format: cell-based, mouse; details: PF, vs control
Protocol: 3T3-L1 adipocytes were cultured in medium containing […] PF as test group and medium only as control. Cells were lysed by adding 0.1 N HCL, and intracellular cyclic AMP was measured by ELISA.

[3] = system: Hormone sensitive lipase (HSL); test: Semi-quantitative RT-PCR of HSL expression in 3T3-L1 adipocytes; format: cell-based, mouse; details: 1 mol/L PF, from the third day after exposure
Protocol: 3T3-L1 adipocytes were cultured in medium containing […] PF as a test group and medium only as the control group. Total RNA was extracted and reverse transcribed to cDNA employing conventional methods known to those of skill in the art. Primers used for polymerase chain reaction (PCR) amplification of mouse HSL primers were selected based on published sequence (NM_010719) (expected PCR fragment: 409 bp): For semi-quantitative analysis, the amplification cycles were chosen within the linear range (HSL: 24 cycles with […] at 58° C., GAPDH: 21 cycles with […] at 58° C.).

[4] = system: Adiponectin receptor 1 (Adipor1); test: Oligo GEArray microarray of obesity-related genes in 3T3-L1 adipocytes; format: cell-based, mouse; details: for Ratio of expression signals of Adipor1 compared to control: 1 umol/L PF, control = 1
Protocol: (§1) 3T3-L1 adipocytes were cultured in medium containing 1 umol/L PF as test group and medium only as control. Total RNA was extracted and Oligo GEArray was tested using Superarray OMM-17. The GEArray includes 111 obesity-related genes that are directly involved in the regulation of energy intake and expenditure. The genes included orexigenic peptides, hormones, and receptors, anorectic peptides, hormones, receptors, and central and peripheral signaling molecules involved in energy expenditure. The increase changes or decrease changes of more than 1.5 fold are regarded meaningful according to the diagnosis discipline, as described in the insert literature of a metabolic disease/obesity gene panel product purchased from Superarray Bioscience Corporation. (Frederick, Md.). […] In the graphs, the data above the upper line and the data below the lower line show a significant change of gene expression.

[5] = system: Adra2b; test: as above; format: cell-based, mouse; details: for Ratio of expression signals of Adra2b compared to control: 3T3-L1 adipocytes, 1 umol/L PF, control = 1
Protocol: as §1

[6] = system: Adrb2; test: as above; format: cell-based, mouse; details: for Ratio of expression signals of Adrb2 compared to control: 1 umol/L PF, control = 1
Protocol: as §1

[7] = system: Adrb3; test: as above; format: cell-based, mouse; details: for Ratio of expression signals of Adrb3 compared to control: 1 umol/L PF, control = 1
Protocol: as §1

[8] = system: Peroxisome proliferators activated receptor gamma (Pparg); test: as above; format: cell-based, mouse; details: for Ratio of expression signals of Pparg compared to control: 1 umol/L PF, control = 1
Protocol: as §1

[9] = system: β1-adrenergic receptor (Adrb1); test: as above; format: cell-based, mouse; details: for Ratio of expression signals of Adrb1 compared to control: 3T3-L1 adipocytes, 1 umol/L PF, control = 1
Protocol: as §1

[10] = Blood indices before and after PF treatment in patients; format: in vivo, human
Protocol: Eight patients were treated with PF. The levels of three indices such as serum cholesterol, LDL Cholesterol, serum triglycerides in blood were tested before and after treatment.

[11] = Targeted fat reduction with injectable PF preparation in patients; format: in vivo, human
Protocol: 1 ml of PF (1) at a concentration of 1 mol is mixed with 4 ml injectable water and 5 ml (phosphatidyl choline (PPC)) prepared from soya bean extract and 5 ml 2% lidocaine. A total of 15 ml solution. This solution is mixed together in a 20 ml syringe and the needle is changed to a small insulin needle Gauge 30×½ as shown therein before the actual injections are given. The solution is then given subcutaneously directly into the fat areas at a dose of 0.5 ml per site totaling 20 injections. These injections are spread out to cover a big surface area, e.g. could be spread out through a whole midsection (“love handle”) in case of a larger patient, or if the patient were an average size it could be spread out to cover right and left love handles in one session. For reference, please refer to the patients injected in the thigh and buttocks area, for explanation. This patient was injected with 30 smaller injections of 0.2 ml per site, and they were spread through out the whole outer and inner thigh and buttocks areas on the right side. 0.5 mg of PF was dissolved in 5 ml of injectable water rendering a concentration of 0.1 mg/ml. This was then mixed with 5 ml of Phosphatidyl Choline in a 20 ml syringe. The large gauge needle was then replaced with a smaller gauge (Gauge 27-30, in some embodiments, a 30 gauge×½) insulin needle and the 10 ml was injected into 20 different sites of a given area. 0.5 ml of the solution was injected into the stomach, with about 1 cm separating each injection site.

[12] = as above; format: in vivo, human; details: alternative protocol, 20 small (0.1 to 0.2 ml) injections per session, 5 sessions

C[C@@]12C[C@@]3(O)O[C@@H](O1)[C@]1(COC(=O)c4ccccc4)[C@H]3C[C@@]12O[C@@H]1O[C@H](CO)[C@@H](O)[C@H](O)[C@H]1O [PF, paeoniflorin]
release of glycerol [1]: increased the release of glycerol significantly | intracellular cAMP ([2]; first day / 24 hours): significantly increased | intracellular cAMP ([2]; third day / 72 hours): significantly increased | expression of HSL [3]: increased the expression of HSL | Ratio of expression signals of Adipor1 compared to control ([4]; 3 days): 0.68 | Ratio of expression signals of Adipor1 compared to control ([4]; 6 days): 1.21 | Ratio of expression signals of Adipor1 compared to control ([4]; 7 days): 1.86 | increase of Adipor1 expression ([4]; day 7 of exposure to PF): 1.86 fold | effect on expression of Adra2b ([5]; 3T3-L1 adipocytes exposed to PF, whole study): no effect on Adra2b | Ratio of expression signals of Adra2b compared to control ([5]; 3 days): 0.92 | Ratio of expression signals of Adra2b compared to control ([5]; 6 days): 1.44 | Ratio of expression signals of Adra2b compared to control ([5]; 7 days): 1.27 | Ratio of expression signals of Adrb2 compared to control ([6]; 3 days): 0.74 | Ratio of expression signals of Adrb2 compared to control ([6]; 6 days): 1.96 | Ratio of expression signals of Adrb2 compared to control ([6]; 7 days): 7.40 | increase of Adrb2 expression ([6]; 7 days post exposure to PF): 7.4 fold | Ratio of expression signals of Adrb3 compared to control ([7]; 3 days): 1.56 | Ratio of expression signals of Adrb3 compared to control ([7]; 6 days): 3.18 | Ratio of expression signals of Adrb3 compared to control ([7]; 7 days): 5.65 | increase of Adrb3 expression ([7]; 7 days post exposure to PF): 5.65 fold | Ratio of expression signals of Pparg compared to control ([8]; 3 days): 0.91 | Ratio of expression signals of Pparg compared to control ([8]; 6 days): 1.09 | Ratio of expression signals of Pparg compared to control ([8]; 7 days): 0.64 | reduction of the level of expression of Pparg ([8]; day 7 of exposure to PF): 1.54 fold | effect on expression of Adrb1 ([9]; 3T3-L1 adipocytes exposed to PF): significant increase | Ratio of expression signals of Adrb1 compared to control ([9]; 3 days): 3.39 | Ratio of expression signals of Adrb1 compared to control ([9]; 6 days): 0.8 | Ratio of expression signals of Adrb1 compared to control ([9]; 7 days): 0.58 | Serum Triglycerides Post-tx, Ave ([10]; average of eight patients, Pre-tx Ave 79.38, P 0.462, NR: 35-160): 72.50 mg/dL | LDL Cholesterol Post-tx, Ave ([10]; average of eight patients, Pre-tx Ave 122.81, P 0.452, NR: 60-150): 112.69 mg/dL | Serum Cholesterol Post-tx, Ave ([10]; average of eight patients, Pre-tx Ave 202.88, P 0.002, NR: 50-200): 172.75 mg/dL | Serum cholesterol, LDL Cholesterol, serum triglycerides in blood, change after treatment ([10]; eight patients, before vs after treatment): reduced after PF treatment | Serum Triglycerides Post-tx ([10]; individual cases 1-8, after PF treatment, NR: 35-160): 60 mg/dL and 59 mg/dL and 67 mg/dL and 71 mg/dL and 110 mg/dL and 55 mg/dL and 85 mg/dL and 73 mg/dL | Serum Cholesterol Post-tx ([10]; individual cases 1-8, after PF treatment, NR: 50-200): 135 mg/dL and 151 mg/dL and 222 mg/dL and 168 mg/dL and 237 mg/dL and 150 mg/dL and 148 mg/dL and 171 mg/dL | LDL Cholesterol Post-tx ([10]; individual cases 1-8, after PF treatment, NR: 60-150): 75 mg/dL and 92 mg/dL and 146 mg/dL and 108 mg/dL and 176.5 mg/dL and 98 mg/dL and 93 mg/dL and 113 mg/dL | weight loss ([11]; 2 sessions together with an aerobic instructor, in 2 weeks): over 3 pounds | Size at End of Treatment, stomach area ([11]; Patient 1, 6 weeks/11 sessions, size before start 90 cm): 83 cm | Size at End of Tx, stomach area ([11]; Patient 2, 5 weeks/9 sessions, size before start 96 cm): 90 cm | Size at End, both upper arms ([11]; Patient 3, 1 month/8 sessions (4 per side), size before start 40 cm): 36.5 cm | fat loss ([11]; each 10 sessions): about 7 cm | fat loss ([11]; in 5 sessions of 20 injections of 0.5 ml): 3 cm | sessions until a noticeable difference was seen ([11]; on average, sessions of 20 injections): 4-5 sessions | fat loss ([11]; one patient, 10 sessions over about 6 weeks): more than 5 inches | sessions per 1 cm of fat dissolved ([11]; stomach and thigh areas, human): 1-1.5 sessions | fat dissolved per session ([11]; upper arms areas, human): about 1 cm | fat lost ([11]; with 10 sessions): over 5 pounds | measurable fat loss [12]: 3 cm
